What was measured:
[1] = test system: Stx17 phosphorylation (Stx17^pS02) by TBK1; test: Western blot of Stx17 phosphorylation at Ser-202 in HeLa cells; type: cell-based, human
[2] = test system: LDH sequestration in autophagosomes, HeLa cells; test: LDH (lactate dehydrogenase) sequestration assay; type: cell-based, human; conditions: WT HeLa cells, EBSS 2 h in presence of bafilomycin A1; 3-methyladenine 10 mM as positive control (FIG. 7N,O)

Compound: CC(=O)N[C@H]1C(O)O[C@H](CO)[C@@H](O)[C@@H]1O[C@H](C)C(=O)N[C@@H](C)C(=O)N[C@H](CCC(=O)O)C(N)=O (mixture of isomers) [MDP, muramyl-dipeptide]
- Stx17^pS02 band response to agonists of TBK1 ([1]; HeLa cells, Western blot (FIG. 8H), band also detectable in resting cells): responsive

Compound: Cn1cnc(N)c2ncnc1-2 [3MA, 3-methyladenine]
- LDH (bulk autophagy cargo) sequestration in autophagosomes [2]: reduction in cargo sequestration

Compound: O=C(NCCCNc1nc(Nc2cccc(NC(=O)N3CCCC3)c2)ncc1I)c1cccs1 [BX795]
- Stx17 phosphorylation (Stx17^pS02) ([1]; cells stimulated with LPS, HeLa WT or TBK1 KO cells, Western blot (FIG. 8I)): inhibited Stx17 phosphorylation
- baseline Stx17^pS02 levels ([1]; unstimulated cells, Western blot (FIG. 8I)): reduced the low baseline levels

From patent publication US11878018B1, “Phosphorylation of Syntaxin 17 by TBK1 controls autophagy initiation” (priority 2018, dated 2024)
